Laboratory results reported in ChEMBL document CHEMBL3259722, “MT1 and MT2 melatonin receptors: ligands, models, oligomers, and therapeutic potential” (J Med Chem, 2014).
Values belong to the compound of their own block, whether it stands above or below them.

Legend:
[1] = target: T1, Melatonin receptor type 1A (Homo sapiens, UniProt P48039); assay: Antagonist activity at MT1 receptor (unknown origin) expressed in mouse NIH3T3 cells by [35S]GTPgammaS binding assay; assay type: functional
[2] = target: T2, Melatonin receptor type 1B (Homo sapiens, UniProt P49286); assay: Antagonist activity at MT2 receptor (unknown origin) expressed in mouse NIH3T3 cells by [35S]GTPgammaS binding assay; assay type: functional
T2 sequence (P49286 whole entry): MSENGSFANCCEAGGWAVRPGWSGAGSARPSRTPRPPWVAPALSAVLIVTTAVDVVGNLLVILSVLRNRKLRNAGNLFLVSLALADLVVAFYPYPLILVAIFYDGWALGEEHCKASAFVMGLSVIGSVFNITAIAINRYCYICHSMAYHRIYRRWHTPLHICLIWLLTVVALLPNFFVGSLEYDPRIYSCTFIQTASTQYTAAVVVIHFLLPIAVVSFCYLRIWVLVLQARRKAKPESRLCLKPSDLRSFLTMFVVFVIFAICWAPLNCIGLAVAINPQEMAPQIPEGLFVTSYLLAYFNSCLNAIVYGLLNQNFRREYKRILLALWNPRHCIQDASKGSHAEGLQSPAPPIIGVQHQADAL

Homo sapiens [3] = organism: Homo sapiens; assay: Selectivity ratio of Ki for human recombinant MT1 receptor to Ki for human recombinant MT2 receptor
Homo sapiens [4] = organism: Homo sapiens; assay: Selectivity ratio of Ki for MT2 receptor (unknown origin) to Ki for MT1 receptor (unknown origin)
[5] = target: T2, Melatonin receptor type 1B; assay: Binding affinity to MT2 receptor (unknown origin) expressed in HEK cells; assay type: cell-based, HEK293
[6] = target: T1, Melatonin receptor type 1A; assay: Binding affinity to MT1 receptor (unknown origin) expressed in HEK cells; assay type: cell-based, HEK293
[7] = target: T1, Melatonin receptor type 1A; assay: Displacement of [125I]2-iodomelatonin from human MT1 receptor expressed in CHO cells; assay type: cell-based
[8] = target: T2, Melatonin receptor type 1B; assay: Displacement of [125I]2-iodomelatonin from human MT2 receptor expressed in CHO cells; assay type: cell-based
[9] = target: T2, Melatonin receptor type 1B; assay: Agonist activity at MT2 receptor (unknown origin) expressed in mouse NIH3T3 cells assessed as inhibition of forskolin-induced cAMP accumulation; assay type: functional, cell-based
Homo sapiens [10] = organism: Homo sapiens; assay: Selectivity ratio of Ki for human MT2 receptor to Ki for human MT1 receptor
[11] = target: T2, Melatonin receptor type 1B; assay: Displacement of [125I]2-iodomelatonin from human recombinant MT2 receptor expressed in African green monkey COS7 cells; assay type: cell-based, COS-7
Homo sapiens [12] = organism: Homo sapiens; assay: Selectivity ratio of Ki for MT1 receptor (unknown origin) to Ki for MT2 receptor (unknown origin)
[13] = target: T1, Melatonin receptor type 1A; assay: biochemical
[14] = target: T1, Melatonin receptor type 1A; assay: Agonist activity at MT1 receptor (unknown origin) expressed in mouse NIH3T3 cells assessed as inhibition of forskolin-induced cAMP accumulation; assay type: functional, cell-based
[15] = target: T2, Melatonin receptor type 1B; assay: Displacement of [125I]2-iodomelatonin from MT2 receptor (unknown origin) expressed in HEK293 cells; assay type: cell-based
[16] = target: T1, Melatonin receptor type 1A; assay: Antagonist activity at MT1 receptor (unknown origin) assessed as cAMP accumulation; assay type: functional
[17] = Partial agonist activity at melatonin receptor in chicken brain membranes assessed as cAMP level; assay type: cell membranes, Gallus gallus, Membrane
CYP3A4 = CYP3A4 (Homo sapiens, UniProt P08684); assay: Half life of the compound assessed as CYP3A4 (unknown origin)-mediated drug metabolism; assay type: ADME
[18] = target: T1, Melatonin receptor type 1A; assay: Binding affinity to MT1 receptor (unknown origin) expressed in HEK293 cells; assay type: cell-based
[19] = target: T2, Melatonin receptor type 1B; assay: Binding affinity to MT2 receptor (unknown origin) expressed in HEK293 cells; assay type: cell-based

T1 sequence (P48039 whole entry): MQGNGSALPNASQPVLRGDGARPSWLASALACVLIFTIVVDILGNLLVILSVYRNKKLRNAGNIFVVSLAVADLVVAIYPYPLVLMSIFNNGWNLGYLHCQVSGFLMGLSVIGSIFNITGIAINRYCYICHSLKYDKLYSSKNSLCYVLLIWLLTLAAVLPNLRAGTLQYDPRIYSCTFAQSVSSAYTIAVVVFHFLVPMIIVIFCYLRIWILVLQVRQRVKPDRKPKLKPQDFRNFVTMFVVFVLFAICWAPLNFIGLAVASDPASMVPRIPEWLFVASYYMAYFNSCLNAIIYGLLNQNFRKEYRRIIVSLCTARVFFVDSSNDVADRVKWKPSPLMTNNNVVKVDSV
Chain of CYP3A4 (P08684 whole entry): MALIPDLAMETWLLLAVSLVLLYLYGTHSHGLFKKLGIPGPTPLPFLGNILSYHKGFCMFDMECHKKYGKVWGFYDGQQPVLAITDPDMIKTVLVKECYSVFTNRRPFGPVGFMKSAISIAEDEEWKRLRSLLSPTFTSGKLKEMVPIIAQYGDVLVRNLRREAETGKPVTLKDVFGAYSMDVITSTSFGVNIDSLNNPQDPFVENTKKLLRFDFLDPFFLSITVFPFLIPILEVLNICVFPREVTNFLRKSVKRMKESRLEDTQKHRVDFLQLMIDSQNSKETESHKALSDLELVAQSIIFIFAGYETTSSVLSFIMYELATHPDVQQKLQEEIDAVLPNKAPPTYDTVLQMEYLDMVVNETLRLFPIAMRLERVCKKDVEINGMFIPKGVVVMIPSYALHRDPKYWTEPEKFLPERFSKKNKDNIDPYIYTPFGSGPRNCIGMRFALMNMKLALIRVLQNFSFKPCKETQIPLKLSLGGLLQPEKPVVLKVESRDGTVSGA

Structure (SMILES): COc1ccc2c(c1)C(CNC(C)=O)Cc1ccccc1C2 (stereo unspecified)
Ki [1]: 27 nM
Ki [2]: 1.3 nM

Structure (SMILES): CC(=O)NCCc1c[nH]c2ccc(OCCCOc3ccccc3)cc12
Ratio Ki (Homo sapiens [10]): 10
Ki [7]: 7.9 nM
Ki [8]: 87 nM

Structure (SMILES): COc1cc2c(CCNC(C)=O)c(C)[nH]c2cc1Cl
Ki [11]: 2.2 nM

Structure (SMILES): COc1cc2[nH]cc(CCNC(C)=O)c2cc1OC
Ki [11]: 3.5 nM
Ratio Ki (Homo sapiens [3]): 60
Ki [13]: 207 nM

Structure (SMILES): CC(=O)NCCc1cccc2ccc(OCCCOc3ccc4cccc(CCNC(C)=O)c4c3)cc12
Ratio Ki (Homo sapiens [10]): 3
Ki [7]: 3.9 nM
Ki [8]: 149 nM

Structure (SMILES): CC(=O)NCCc1c[nH]c2ccc(OCCCc3ccccc3)cc12
Ratio Ki (Homo sapiens [10]): 10
Ki [7]: 3.9 nM
Ki [8]: 49 nM

Structure (SMILES): CC(=O)NCCc1cccc2ccc(OCCCCOc3ccc4cccc(CCNC(C)=O)c4c3)cc12
Ratio Ki (Homo sapiens [10]): 54
Ratio Ki (Homo sapiens [4]): 122
Ki [7]: 3.1 nM
Ki [8]: 167 nM

Structure (SMILES): CCCC(=O)NCCc1c2n(c3ccc(OC)cc13)Cc1ccccc1-2
Ratio Ki (Homo sapiens [3]): 89

Structure (SMILES): CCC(=O)NC1Cc2ccccc2C(c2ccccc2)C1 (racemic)
Ratio Ki (Homo sapiens [3]): 330
Ki [13]: 501 nM

Structure (SMILES): CC(=O)NCCc1c(Cc2ccccc2)[nH]c2ccccc12
Ratio Ki (Homo sapiens [3]): 15

Structure (SMILES): O=C(NCCCc1cccc2nc(CCCCc3ccccc3)oc12)C1CC1
Ratio Ki (Homo sapiens [10]): 35

Structure (SMILES): CCCNC(=O)CCCc1cccc2c1SCCO2
IC50 [18]: 2.3 nM
IC50 [19]: 6.7 nM

Structure (SMILES): C=CCC(=O)NCCc1c(Cc2cccc(OC)c2)oc2ccc(OC)cc12
Ratio Ki (Homo sapiens [12]): 192

Now from value to compound:

Ratio Ki (Homo sapiens [3]): 130
Structure (SMILES): COc1ccc2[nH]c(Cc3ccccc3)c(CCNC(C)=O)c2c1

Ratio Ki (Homo sapiens [4]): 25
Ki [5]: 29 nM
Ki [6]: 1.2 nM
Ki [7]: 3.4 nM
Ki [8]: 21.4 nM
Structure (SMILES): CCCCCCOc1ccc2c(c1)C(CCNC(C)=O)CCO2 (stereo unspecified)

Ki [9]: 91.2 nM
Structure (SMILES): CC(=O)NCCN(C)c1cccc(OCCCCc2ccccc2)c1

Ratio Ki (Homo sapiens [12]): 23
Structure (SMILES): COc1ccc2oc(Cc3ccccc3)c(CCNC(C)=O)c2c1

Ki [9]: 0.29 nM
Ki [14]: 0.18 nM
Structure (SMILES): CCOC(=O)c1[nH]c2ccc(OC)c3c2c1[C@@H](CNC(C)=O)CC3

Ki [15]: 0.33 nM
Ratio Ki (Homo sapiens [12]): 123
Structure (SMILES): COc1cccc(Cc2oc3ccc(OC)cc3c2CCNC(C)=O)c1

IC50 [16]: > 1000 nM
Structure (SMILES): COc1cc2c(cc1OC)C(CC(c1ccccc1)c1ccccc1)N(C(C)=O)CC2 (stereo unspecified)

Ki [17]: 2.4 nM
Structure (SMILES): CCCC(=O)NCCCc1cccc2c1OCCO2

Ratio Ki (Homo sapiens [3]): 132
Structure (SMILES): CCCC(=O)NCCc1c2n(c3ccc(OC)cc13)CCCc1ccccc1-2

half-life (CYP3A4): 20 min
Structure (SMILES): COc1ccc2[nH]cc(CCNC(C)=O)c2c1 [MELATONIN]

Ki [7]: 5.2 nM
Ki [8]: 246 nM
Structure (SMILES): CC(=O)NCCc1cccc2ccc(-c3ccc4cccc(CCNC(C)=O)c4c3)cc12

IC50 [16]: > 1000 nM
Structure (SMILES): COc1cc2c(cc1OC)C(CCc1ccccc1)N(C(C)=O)CC2 (stereo unspecified)
